Measurements from ChEMBL document CHEMBL3272225, “Potential carcinostatics. Synthesis and biological properties of d- and 1-beta,beta-difluoroaspartic acid and beta,beta-difluoroasparagine” (J Med Chem, 1977).
The source made the active and inactive calls. No cut-off for these calls is given here.

Experiments:
[1] = Growth inhibition of mouse 3T3-F cells at 10 ug/ml assessed as cell growth after 24 hrs by Coulter counting method; assay type: functional
[2] = Growth inhibition of mouse 3T3-F cells assessed as cell growth at 100 ug/ml after 24 hrs by Coulter counting method; assay type: functional
[3] = organism: Mus musculus; test: Growth inhibition of mouse 3T3-F cells assessed as cell growth after 24 hrs by Coulter counting method; assay type: functional
[4] = tested on: L5178Y; test: Antitumor activity against mouse L5178Y cells allografted in CDF-1 mouse assessed as cytostatic activity administered on day 1 to day 9 post challenge; assay type: functional
[5] = Competitive inhibition of aspartate aminotransferase in rat liver homogenate by Lineweaver-Burk plot method; assay type: tissue-based

N[C@@H](C(=O)O)C(F)(F)C(=O)O
Cell growth at 10 µg/mL [1]: 75%
Cell growth at 100 µg/mL [2]: 12%

N[C@H](C(=O)O)C(F)(F)C(=O)O
Activity [3]: inactive

NC(C(=O)O)C(F)(F)C(=O)O (racemic)
Activity [4]: inactive
Ki [5]: 1000 µM

NC(=O)C(F)(F)C(N)C(=O)O (racemic)
Activity [4]: inactive
